Reference: PubChem BioAssay AID256 (DTP/NCI, 2004)
Values joined by “and” are separate entries in the source; they are usually repeats but may differ in a detail not shown here. Equal values may be shown once. Inconclusive results and toxic doses are left out.

Test system: CD2F1 mice, L1210 leukemia ip, survival T/C
Test: NCI In Vivo Anticancer Drug Screen. Data for tumor model L1210 Leukemia (intraperitoneal) in CD2F1 (CDF1) mice
Details: endpoint: mean survival time, higher = longer survival
How it was run: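 In this screen, transplantable tumors were grown in mice given either the compound or its vehicle. Results were expressed as the treated measurement relative to the control measurement.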

[1] = dose: 50.0 mg/kg/injection, schedule: Q01DX009 (ip), vehicle: saline with Tween-80
[2] = dose: 100.0 mg/kg/injection, schedule: Q01DX009 (ip), vehicle: saline with Tween-80
[3] = dose: 200.0 mg/kg/injection, schedule: Q01DX009 (ip), vehicle: saline with Tween-80
[4] = dose: 100.0 mg/kg/injection, schedule: Q04DX003 (ip), vehicle: saline with Tween-80
[5] = dose: 200.0 mg/kg/injection, schedule: Q04DX003 (ip), vehicle: saline with Tween-80
[6] = dose: 400.0 mg/kg/injection, schedule: Q04DX003 (ip), vehicle: saline with Tween-80
[7] = dose: 100.0 mg/kg/injection, schedule: Q04DX003 (ip), vehicle: saline
[8] = dose: 400.0 mg/kg/injection, schedule: Q04DX003 (ip), vehicle: saline

O=C(NCc1ccccc1)C(Cc1ccccc1)(Cc1ccccc1)C(=O)NCc1ccccc1
T/C [1]: 102 % of control
T/C [2]: 97 % of control
T/C [3]: 93 % of control

Cc1cn(C2CC3OP(=O)(N(C)C)OCC3O2)c(=O)[nH]c1=O (stereo unspecified)
T/C (dose: 12.5 mg/kg/injection, schedule: Q01DX005 (ip), vehicle: water): 105 % of control
T/C (dose: 25.0 mg/kg/injection, schedule: Q01DX005 (ip), vehicle: water): 100 % of control
T/C (dose: 50.0 mg/kg/injection, schedule: Q01DX005 (ip), vehicle: water): 109 % of control
T/C (dose: 100.0 mg/kg/injection, schedule: Q01DX005 (ip), vehicle: water): 97 % of control
T/C (dose: 200.0 mg/kg/injection, schedule: Q01DX005 (ip), vehicle: water): 103 % of control

Cc1ccc(C(O)S(=O)(=O)O)cc1 (stereo unspecified)
T/C [4]: 119 % of control
T/C [5]: 103 % of control
T/C [6]: 115 % of control

CCCCCCCCCCCCCCCCCCNC(=S)NCCCCCCCCCCCCCCCCCC
T/C (dose: 12.5 mg/kg/injection, schedule: Q01DX009 (ip), vehicle: saline with Tween-80): 97 % of control
T/C (dose: 25.0 mg/kg/injection, schedule: Q01DX009 (ip), vehicle: saline with Tween-80): 98 % of control
T/C [1]: 90 % of control and 98 % of control
T/C [2]: 90 % of control

Nc1ccc(Nc2c3ccccc3nc3ccccc23)cc1
T/C (dose: 6.25 mg/kg/injection, schedule: Q04DX003 (ip), vehicle: saline): 101 % of control
T/C (dose: 12.5 mg/kg/injection, schedule: Q04DX003 (ip), vehicle: saline): 111 % of control
T/C (dose: 25.0 mg/kg/injection, schedule: Q04DX003 (ip), vehicle: saline): 114 % of control

CC(O)C(O)C(O)C(O)CO (stereo unspecified) (tested in a mixture with another compound)
T/C (dose: 75.0 mg/kg/injection, schedule: Q01DX001 (ip), vehicle: saline with Tween-80): 87 % of control
T/C (dose: 150.0 mg/kg/injection, schedule: Q01DX001 (ip), vehicle: saline with Tween-80): 93 % of control
T/C (dose: 300.0 mg/kg/injection, schedule: Q01DX001 (ip), vehicle: saline with Tween-80): 86 % of control

CCCCN(CCCC)CC(C)(O)c1cc(-c2ccc(Cl)cc2)nc2c(C)cc(C)cc12 (stereo unspecified)
T/C [4]: 87 % of control
T/C [5]: 89 % of control

N#Cc1ccc(CCl)cc1
T/C (dose: 50.0 mg/kg/injection, schedule: Q01DX009 (ip), vehicle: Klucel (hydroxypropylcellulose) (HPC)): 98 % of control
T/C (dose: 100.0 mg/kg/injection, schedule: Q01DX009 (ip), vehicle: Klucel (hydroxypropylcellulose) (HPC)): 98 % of control

CCOC(=O)CCC(NC(=O)c1cc(Cl)c(N(CC)Cc2cnc3nc(N)nc(N)c3n2)c(Cl)c1)C(=O)OCC (stereo unspecified)
T/C (dose: 25.0 mg/kg/injection, schedule: Q01DX009 (ip), vehicle: Klucel (hydroxypropylcellulose) (HPC)): 170 % of control

CC1(C)CC(N2CCCOP2(=O)N(CCCl)CCCl)CC(C)(C)N1 (stereo unspecified)
T/C (dose: 62.5 mg/kg/injection, schedule: Q01DX001 (ip), vehicle: water): 105 % of control
T/C (dose: 125.0 mg/kg/injection, schedule: Q01DX001 (ip), vehicle: water): 100 % of control
T/C (dose: 250.0 mg/kg/injection, schedule: Q01DX001 (ip), vehicle: water): 106 % of control

O=C1CC(c2ccccc2)=NCCN1
T/C (dose: 100.0 mg/kg/injection, schedule: Q01DX001 (ip), vehicle: Klucel (hydroxypropylcellulose) (HPC)): 100 % of control
T/C (dose: 200.0 mg/kg/injection, schedule: Q01DX001 (ip), vehicle: Klucel (hydroxypropylcellulose) (HPC)): 102 % of control
T/C (dose: 400.0 mg/kg/injection, schedule: Q01DX001 (ip), vehicle: Klucel (hydroxypropylcellulose) (HPC)): 103 % of control

COc1ccc(C(Sc2ccccc2)c2ccc(OC)cc2)cc1
T/C [2]: 95 % of control
T/C [4]: 95 % of control
T/C [3]: 90 % of control
T/C [5]: 95 % of control
T/C (dose: 400.0 mg/kg/injection, schedule: Q01DX009 (ip), vehicle: saline with Tween-80): 86 % of control
T/C [6]: 96 % of control

COc1ccc(C(=O)/C=C/c2ccc3cc(OC)c(OC)cc3c2)cc1OC
T/C (dose: 25.0 mg/kg/injection, schedule: Q01DX009 (ip), vehicle: water): 98 % of control
T/C (dose: 50.0 mg/kg/injection, schedule: Q01DX009 (ip), vehicle: water): 102 % of control

C=C(C)C1CCC2(C=O)CCC3(C)C(CCC4C5(C)CCC(OC6CCCCO6)C(C)(C)C5CCC43C)C12 (stereo unspecified)
T/C (dose: 6.25 mg/kg/injection, schedule: Q04DX002 (ip), vehicle: saline with Tween-80): 111 % of control
T/C (dose: 12.5 mg/kg/injection, schedule: Q04DX002 (ip), vehicle: saline with Tween-80): 100 % of control
T/C (dose: 25.0 mg/kg/injection, schedule: Q04DX002 (ip), vehicle: saline with Tween-80): 100 % of control

c1ccc(-c2nncnn2)cc1
T/C [4]: 92 % of control

CN(CCC#N)CCC#N
T/C [7]: 101 % of control
T/C (dose: 200.0 mg/kg/injection, schedule: Q04DX003 (ip), vehicle: saline): 96 % of control
T/C [8]: 101 % of control

CCCCN(CCCC)CCNc1ccc(C)c2sc3ccccc3c(=O)c12
T/C (dose: 50.0 mg/kg/injection, schedule: Q01DX001 (ip), vehicle: saline): 91 % of control
T/C (dose: 100.0 mg/kg/injection, schedule: Q01DX001 (ip), vehicle: saline): 88 % of control
T/C (dose: 100.0 mg/kg/injection, schedule: Q01DX009 (ip), vehicle: saline): 101 % of control
T/C [7]: 91 % of control
T/C (dose: 200.0 mg/kg/injection, schedule: Q01DX001 (ip), vehicle: saline): 91 % of control
T/C (dose: 200.0 mg/kg/injection, schedule: Q01DX009 (ip), vehicle: saline): 91 % of control
T/C (dose: 400.0 mg/kg/injection, schedule: Q01DX001 (ip), vehicle: saline): 88 % of control
T/C (dose: 400.0 mg/kg/injection, schedule: Q01DX009 (ip), vehicle: saline): 94 % of control
T/C [8]: 87 % of control
